Source: paper PMC10080127, “Metabolic stability and metabolite profiling of emerging synthetic cathinones” (Frontiers in Pharmacology, 2023)

Assays:
[1] = Metabolic stability (substrate depletion) in human liver microsome Phase I incubations; conditions: for intrinsic clearance (CLint): HLM incubations, scaled with 45 mg microsomal protein/g liver and 26 g liver/kg b.w.; for half-life at 10 μM: human, human liver microsomes
[2] = Phase II (glucuronidation) metabolite generation in alamethicin-induced HLM with NADPH and UDPGA; format: in vitro ADME, human; conditions: 2 h, LC-HRMS/MS
Experimental: For the generation of Phase II metabolites, alamethicine-induced HLM ([Fisher et al., 2000]) were used in the presence of Phase I and glucuronidation co-factor. Briefly, HLM (1 mg/mL) were preincubated for 15 min, in ice, with alamethicin (25 μg/mL) in 50 mM ABIC buffer at pH 7.4, for a total incubation volume of 200 μL. Following the addition of MgCl2 (2 mM; 1 μL) and selected cathinone (10 μM final concentration), the resulting solution was incubated for 5 min at 37°. NADPH (5 mM) and UDPGA (5 mM) were then added to start the Phase I and II reactions. Incubations were run in duplicate.
An in-house accurate mass library was first built, considering the metabolic pathways already known for other structurally similar cathinones, and a targeted screening was then carried out by performing extracted ion chromatograms (EIC), with a mass window of ±5 ppm, for the protonated/deprotonated molecules of the expected metabolites in the full scan spectra. Isotope cluster analysis was also used to identify chlorinated metabolites. All spectra corresponding to metabolites were then manually checked. The mass deviation from the accurate mass of the identified cathinone metabolites remained below 5 ppm for the precursor and below 10 ppm for product ions. Candidates present in control incubations and/or without MS/MS data were excluded. […] Metabolites were ranked based on their relative abundance over incubation time (Figures 2–9). The relative abundance was calculated by the ratio of the relative area of each metabolite and the sum of the relative areas obtained for all metabolites and for the respective parent cathinone.

[3] = design: method as in Wagmann et al., 2020; conditions: ref Wagmann et al., 2020; cited from earlier work
[4] = pH 7.4, half-life (t1/2), HLM 1 mg/mL, cathinone 10 μM, NADPH, 37°C, pH 7.4
[5] = pH 7.4, clearance classification based on t1/2, HLM, scoring proposed by McNaney et al. (2008)

For `CC(C)NC(C)C(=O)c1cccc(Cl)c1` (stereo not shown) [3-CIC, 3′-chloro-N-isopropylcathinone], the “intrinsic clearance (CLint)” value [1] was 34 mLmin^−1 kg^−1 and the half-life at 10 μM [1, 4] was 24 min.
In the case of `CNC(C)C(=O)c1cccc(Cl)c1` (stereo not shown) [3-CMC, 3′-chloromethcathinone], the “Phase II (glucuronide) metabolites identified” value (from here on “Phase II”) [2] is reported as “No Phase II metabolites were identified”, the “intrinsic clearance (CLint)” value [1] is reported as 15 mLmin^−1 kg^−1 and the half-life at 10 μM [1, 4] is reported as 54 min.
For `CCNC(C)C(=O)c1ccc(Cl)cc1` (stereo not shown) [4-CEC, 4-chloroethcathinone], the “half-life (t1/2) reported” value [3] is given as 105 min.
For `CC(C)NC(C)C(=O)c1ccc(Cl)cc1` (stereo not shown) [4-CIC, 4′-chloro-N-isopropylcathinone], the “intrinsic clearance (CLint)” value [1] was 22 mLmin^−1 kg^−1 and the half-life at 10 μM [1, 4] was 36 min.
With `CNC(C)C(=O)c1ccc(Cl)cc1` (stereo not shown) [4-CMC, 4′-chloromethcathinone] the “Phase II” value [2] was “no Phase II metabolite was identified”, the “intrinsic clearance (CLint)” value [1] was 10 mLmin^−1 kg^−1 and the half-life at 10 μM [1, 5] was greater than 60 min. It also gave a half-life at 10 μM [1, 4] of 78 min.
With `CCC(C(=O)c1ccc(C)cc1)N(C)C` (stereo not shown) [4-MDMB, 4′-methyl-N,N-dimethylbufedrone] the “Phase II” value [2] was “No Phase II metabolite was detected”, the “intrinsic clearance (CLint)” value [1] was 54 mLmin^−1 kg^−1 and the half-life at 10 μM [1, 5] was less than 20 min. The half-life at 10 μM [1, 4] was 15 min.
With `CCCC(C(=O)c1ccc(C)cc1)N(C)C` (stereo not shown) [4-MDMP, 4′-methyl-N,N-dimethylpentedrone] the “Phase II” value [2] was “No Phase II metabolites were identified”, the “intrinsic clearance (CLint)” value [1] was 18 mLmin^−1 kg^−1 and the half-life at 10 μM [1, 4] was 46 min.
In the case of `CCCC(NCC)C(=O)c1ccc(C)cc1` (stereo not shown) [4-MEAP, 4′-methyl-N-ethylnorpentedrone], the “Phase II” value [2] is reported as “no glucuronide metabolite was identified”, the “intrinsic clearance (CLint)” value [1] is reported as 33 mLmin^−1 kg^−1 and the half-life at 10 μM [1, 4] is reported as 24 min.
In the case of `CCNC(CC)C(=O)c1ccc(C)cc1` (stereo not shown) [4-MNEB, 4′-methyl-N-ethylbufedrone], the “Phase II” value [2] is reported as “No Phase II metabolites were identified”, the “intrinsic clearance (CLint)” value [1] is reported as 16 mLmin^−1 kg^−1 and the half-life at 10 μM [1, 4] is reported as 55 min.
